Reference: US20250340574A1, “MODULATORS OF CYSTIC FIBROSIS TRANSMEMBRANE CONDUCTANCE REGULATOR” (Vertex Pharmaceuticals Incorporated, priority 2022, published 2025)
Where two headings read alike, the source gives them in different places. Blank lines part the entries; values can stand above or below the compound they belong to.

Legend:
[1] = amide bond, 13-membered ring, CDMT/NMM, DMF
[2] = target: T1, CFTR (F508del/MF-HBE cells) (Homo sapiens, UniProt P13569, DEL508-508); assay: Ussing chamber assay of CFTR-mediated short-circuit currents, Assay A (0.1 μM to 25 μM, 6 concentrations); type: cell-based; details: with 33 nM potentiator and 18 μM Tezacaftor, 20% human serum; for Emax: 18-24 hours, read-out: A Max activity (%)
T1 construct: human bronchial epithelial (HBE) cells derived from CF subjects heterozygous for F508del and a minimal function CFTR mutation (F508del/MF-HBE); endogenous in cells; host or cells: Primary human bronchial epithelial cells from CF subjects (F508del/MF genotype), differentiated at an air-liquid interface
Summary of the method: (§1)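 Short-circuit current was recorded at 37 °C under voltage clamp (0 mV) with amiloride 30 μM apically, forskolin 20 μM activation, then BPO/GlyH-101/inh-172 (20 μM each) to isolate CFTR current. Before recording, corrector exposure lasted 18–24 h with 18 μM tezacaftor, 20% human serum, and 33 nM (dose–response) or 44 nM (1 μM fixed) potentiator, maintained throughout.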

[3] = target: T1, CFTR (F508del/MF-HBE cells); assay: Ussing chamber assay of CFTR-mediated short-circuit currents, Assay B (0.00001 μM to 25 μM, 12 concentrations); type: cell-based; details: with 33 nM potentiator and 18 μM Tezacaftor, 20% human serum; for Emax: 18-24 hours, read-out: B Max activity (%)
Summary of the method: as §1

[4] = target: T1, CFTR (F508del/MF-HBE cells); assay: Ussing chamber assay of CFTR-mediated short-circuit currents, Assay D (single concentration of 1 μM); type: cell-based; details: with 44 nM potentiator and 18 μM Tezacaftor, 18-24 hours, 20% human serum
Summary of the method: as §1

[5] = target: T1, CFTR (F508del/MF-HBE cells); assay: Ussing chamber assay of CFTR-mediated short-circuit currents, Assay C (0.026 μM to 25 μM, 6 concentrations); type: cell-based; details: with 33 nM potentiator and 18 μM Tezacaftor, 20% human serum
Summary of the method: as §1

[6] = from Cc1cccc(C)c1-c1cc(OC[C@@H](CC(C)(C)C)NCc2cn3ccc(Br)cc3n2)nc(NS(=O)(=O)c2cccc(C(=O)O)c2)n1; amide bond; 13-membered ring; CDMT/NMM; DMF; 28.2 mM; 3.08 h

T1 sequence (P13569 with tags, fused parts or gaps DEL508-508): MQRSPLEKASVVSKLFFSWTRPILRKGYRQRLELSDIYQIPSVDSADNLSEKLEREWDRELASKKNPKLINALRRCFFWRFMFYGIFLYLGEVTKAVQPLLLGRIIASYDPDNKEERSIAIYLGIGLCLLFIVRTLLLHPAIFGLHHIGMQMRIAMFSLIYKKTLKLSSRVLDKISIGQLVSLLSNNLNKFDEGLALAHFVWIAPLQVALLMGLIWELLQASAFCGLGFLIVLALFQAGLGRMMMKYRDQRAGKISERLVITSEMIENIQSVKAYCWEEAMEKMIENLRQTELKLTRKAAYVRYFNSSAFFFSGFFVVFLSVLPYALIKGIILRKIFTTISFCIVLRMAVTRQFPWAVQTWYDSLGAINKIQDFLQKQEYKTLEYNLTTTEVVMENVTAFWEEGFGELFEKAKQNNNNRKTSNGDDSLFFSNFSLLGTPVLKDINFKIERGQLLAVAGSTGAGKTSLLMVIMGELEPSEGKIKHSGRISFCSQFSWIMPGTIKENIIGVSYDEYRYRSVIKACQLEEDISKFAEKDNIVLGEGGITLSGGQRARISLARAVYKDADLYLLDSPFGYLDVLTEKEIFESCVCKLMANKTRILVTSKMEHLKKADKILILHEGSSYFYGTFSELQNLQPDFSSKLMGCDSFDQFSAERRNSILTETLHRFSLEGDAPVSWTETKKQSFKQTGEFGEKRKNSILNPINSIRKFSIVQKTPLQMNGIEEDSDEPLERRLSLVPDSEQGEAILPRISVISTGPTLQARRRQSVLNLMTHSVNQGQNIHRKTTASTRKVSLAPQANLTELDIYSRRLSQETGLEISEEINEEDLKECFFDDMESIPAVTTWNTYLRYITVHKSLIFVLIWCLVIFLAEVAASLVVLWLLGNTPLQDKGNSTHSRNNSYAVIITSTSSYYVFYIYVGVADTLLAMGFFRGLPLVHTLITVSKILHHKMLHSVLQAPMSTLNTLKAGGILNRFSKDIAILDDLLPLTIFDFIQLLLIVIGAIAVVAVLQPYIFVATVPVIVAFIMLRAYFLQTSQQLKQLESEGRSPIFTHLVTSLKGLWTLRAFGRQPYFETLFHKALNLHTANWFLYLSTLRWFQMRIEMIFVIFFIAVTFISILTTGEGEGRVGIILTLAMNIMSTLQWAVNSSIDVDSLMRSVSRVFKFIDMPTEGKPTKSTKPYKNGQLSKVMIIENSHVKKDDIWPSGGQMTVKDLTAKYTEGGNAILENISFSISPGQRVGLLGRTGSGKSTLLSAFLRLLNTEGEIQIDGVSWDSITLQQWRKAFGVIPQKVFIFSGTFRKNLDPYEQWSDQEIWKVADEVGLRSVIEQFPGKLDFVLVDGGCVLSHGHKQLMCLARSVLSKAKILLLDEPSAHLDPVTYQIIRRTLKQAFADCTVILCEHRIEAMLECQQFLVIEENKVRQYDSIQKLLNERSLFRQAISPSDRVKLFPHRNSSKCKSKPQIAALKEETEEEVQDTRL

Structure (SMILES): Cc1cccc(C)c1-c1cc2nc(n1)NS(=N)(=O)c1cccc(c1)C(=O)N(Cc1cnc3oc(C4CC4)cc3n1)[C@H](CC(C)(C)C)CO2 (some centres unmarked)
ring closure, isolated yield (from 3-[[[4-[(2R)-2-[(6-Cyclopropylfuro[2,3-b]pyrazin-2-yl)methylamino]-4,4-dimethyl-pentoxy]-6-(2,6-dimethylphenyl)pyrimidin-2-yl]amino]sulfonimidoyl]benzoic acid (hydrochloride salt) (isomer B), amide bond, 13-membered ring, CDMT/NMM, DMF, 10.4 mM): 8%

Emax [2]: > 60%
EC50 [2]: < 1 µM
Emax [3]: > 60%
EC50 [3]: < 1 µM
D activity at 1 μM (%) [4]: +++ (+++ is >60%)
Structure (SMILES): Cc1cccc(C)c1-c1cc2nc(n1)NS(=O)(=O)c1cccc(c1)C(=O)N(Cc1cnc3oc(C(C)(C)C)cc3n1)[C@H](CC13CC(C1)C3)CO2 [Compound I-99, (11R)-11-(1-bicyclo[1.1.1]pentanylmethyl)-12-[(6-tert-butylfuro[2,3-b]pyrazin-2-yl)methyl]-6-(2,6-dimethylphenyl)-2,2-dioxo-9-oxa-2λ^6-thia-3,5,12,19-tetrazatricyclo[12.3.1.14,8]nonadeca-1(18),4(19),5,7,14,16-hexaen-13-one]
ring closure, yield after HPLC ([1]; from Cc1cccc(C)c1-c1cc(OC[C@@H](CC23CC(C2)C3)NCc2cnc3oc(C(C)(C)C)cc3n2)nc(NS(=O)(=O)c2cccc(C(=O)O)c2)n1, 29.9 mM, 16.0 h): 54%

Structure (SMILES): Cc1cccc(C)c1-c1cc2nc(n1)NS(=O)(=O)c1cccc(c1)C(=O)N(Cc1cnc3oc(C4CC4)cc3n1)C(C1(C(C)C)CC1)CO2 (centres unmarked)
ring closure, isolated yield (from Cc1cccc(C)c1-c1cc(OCC(NCc2cnc3oc(C4CC4)cc3n2)C2(C(C)C)CC2)nc(NS(=O)(=O)c2cccc(C(=O)O)c2)n1, amide bond, 13-membered ring, CDMT/NMM, DMF, 25.0 °C): 41%

D activity at 1 μM (%) [4]: ++ (++ is 30-60%)
Structure (SMILES): Cc1cccc(C)c1-c1cc2nc(n1)NS(=O)(=O)c1cccc(c1)C(=O)N(Cc1cnc3oc(Br)cc3n1)[C@H](CC1(C)CC1)CO2 [Compound I-254, (11R)-12-[(6-bromofuro[2,3-b]pyrazin-2-yl)methyl]-6-(2,6-dimethylphenyl)-11-[(1-methylcyclopropyl)methyl]-2,2-dioxo-9-oxa-2λ^6-thia-3,5,12,19-tetrazatricyclo[12.3.1.14,8]nonadeca-1(18),4(19),5,7,14,16-hexaen-13-one]
ring closure, isolated yield (from Cc1cccc(C)c1-c1cc(OC[C@@H](CC2(C)CC2)NCc2cnc3oc(Br)cc3n2)nc(NS(=O)(=O)c2cccc(C(=O)O)c2)n1, amide bond, 13-membered ring, CDMT?, 16.0 h): 65%

Structure (SMILES): Cc1cccc(C)c1-c1cc2nc(n1)NS(=O)(=O)c1cccc(c1)C(=O)N(Cc1cncc(Cl)n1)[C@H](CCC(C)(C)C)CO2
ring closure, isolated yield (from Cc1cccc(C)c1-c1cc(OC[C@@H](CCC(C)(C)C)NCc2cncc(Cl)n2)nc(NS(=O)(=O)c2cccc(C(=O)O)c2)n1, amide bond, 13-membered ring, CDMT/NMM, DMF, 15.0 mM, 18.0 h): 48%

Structure (SMILES): CC1(C)CCC=CC[C@](OCc2ccccc2)(C(F)(F)F)C2=NN=C(O2)c2nc(c(C(F)(F)F)cc2[N+](=O)[O-])N1 (mixture of isomers)
ring closure, isolated yield (from C=CCCC(C)(C)Nc1nc(-c2nnc([C@@](CC=C)(OCc3ccccc3)C(F)(F)F)o2)c([N+](=O)[O-])cc1C(F)(F)F, rcm bond, 14-membered ring, Zhan catalyst-1B (20 mol%), DCE, 9.26 mM, 72.0 °C, 2.47 h): 40%

Emax ([5]; 18-24 hours, read-out: C Max activity (%)): > 60%
EC50 [5]: < 1 µM
D activity at 1 μM (%) [4]: +++ (+++ is >60%)
Structure (SMILES): Cc1cccc(C)c1-c1cc2nc(n1)NS(=O)(=O)c1cccc(c1)C(=O)N(Cc1cnc3oc(C4CC4)cc3n1)C(C(C(C)C)C(C)C)CO2 (single isomer, unassigned) [Compound I-177, 12-[(6-cyclopropylfuro[2,3-b]pyrazin-2-yl)methyl]-6-(2,6-dimethylphenyl)-11-(1-isopropyl-2-methyl-propyl)-2,2-dioxo-9-oxa-2λ^6-thia-3,5,12,19-tetrazatricyclo[12.3.1.14,8]nonadeca-1(18),4(19),5,7,14,16-hexaen-13-one]
ring closure, isolated yield (from Cc1cccc(C)c1-c1cc(OCC(NCc2cnc3oc(C4CC4)cc3n2)C(C(C)C)C(C)C)nc(NS(=O)(=O)c2cccc(C(=O)O)c2)n1, amide bond, 13-membered ring, CDMT/NMM, DMF, 15.0 mM, 68.0 h): 31%

Structure (SMILES): Cc1cccc(C)c1-c1cc2nc(n1)NS(=O)(=O)c1cccc(c1)C(=O)N(Cc1cnc3oc(C4CC4)cc3n1)C(CC1CC(C)(C)C1)CO2 (centres unmarked)
ring closure, isolated yield (from Cc1cccc(C)c1-c1cc(OCC(CC2CC(C)(C)C2)NCc2cnc3oc(C4CC4)cc3n2)nc(NS(=O)(=O)c2cccc(C(=O)O)c2)n1, amide bond, 13-membered ring, CDMT/NMM, DMF, 15.9 mM, 25.0 h): 75%

Structure (SMILES): Cc1cccc(C)c1-c1cc2nc(n1)NS(=O)(=O)c1cccc(c1)C(=O)N(Cc1cn3ccc(Br)cc3n1)[C@H](CC(C)(C)C)CO2
ring closure, crude yield [6]: 90%

Emax [2]: > 60%
EC50 [2]: < 1 µM
Emax [3]: > 60%
EC50 [3]: < 1 µM
Structure (SMILES): Cc1cccc(C)c1-c1cc2nc(n1)NS(=O)(=O)c1cccc(c1)C(=O)N(Cc1cnc3nc(C(C)C)n(C)c3n1)[C@H](CC13CC(C1)C3)CO2 [Compound I-88, (11R)-11-(1-bicyclo[1.1.1]pentanylmethyl)-6-(2,6-dimethylphenyl)-12-[(2-isopropyl-3-methyl-imidazo[4,5-b]pyrazin-5-yl)methyl]-2,2-dioxo-9-oxa-2λ^6-thia-3,5,12,19-tetrazatricyclo[12.3.1.14,8]nonadeca-1(18),4(19),5,7,14,16-hexaen-13-one]
ring closure, yield after HPLC ([1]; from Cc1cccc(C)c1-c1cc(OC[C@@H](CC23CC(C2)C3)NCc2cnc3nc(C(C)C)n(C)c3n2)nc(NS(=O)(=O)c2cccc(C(=O)O)c2)n1, 11.0 mM, 16.5 h): 66%
